Reference: ChEMBL document CHEMBL1287731, “Synthesis and in vitro inhibitory activity of matrine derivatives towards pro-inflammatory cytokines” (Bioorg Med Chem Lett, 2010)

Assays:
RAW264.7 [1] = assay: Antiinflammatory activity in mouse RAW264.7 cells assessed as inhibition of LPS-induced TNF-alpha production at 10 uM after 6 hrs by ELISA; assay type: functional; conditions: RAW264.7, 6 h
RAW264.7 [2] = assay: Cytotoxicity against mouse RAW264.7 cells; assay type: cell-based
RAW264.7 [3] = assay: Antiinflammatory activity in mouse RAW264.7 cells assessed as inhibition of LPS-induced TNF-alpha production after 6 hrs by ELISA; assay type: functional, cell-based; conditions: for IC50: RAW264.7, 6 h
RAW264.7 [4] = assay: Inhibition of NF-kappaB transcriptional activity in LPS-stimulated mouse RAW264.7 cells by dual luciferase reporter assay relative to renilla luciferase activity; assay type: cell-based

Row | SMILES | inhibition at 10 µM (RAW264.7 [1]) | Activity (RAW264.7 [2]) | inhibition (RAW264.7 [3]) | IC50 (RAW264.7 [3]) | fold change (FC) (RAW264.7 [4])
1 | CN[C@@H]1CC(=S)N2C[C@@H]3CCCN4CCC[C@@H]([C@H]34)[C@H]2C1 | 9.1% | Non-toxic | Dose-dependent effect | 93.2 µM | 3.69
2 | N[C@@H]1CC(=O)N2C[C@@H]3CCCN4CCC[C@@H]([C@H]34)[C@H]2C1 | – | Non-toxic | Dose-dependent effect | > 200 µM | 6.54
3 | O=C1CCC[C@@H]2[C@H]3CCCN4CCC[C@@H](CN12)[C@@H]34 [MATRINE] | – | Non-toxic | Dose-dependent effect | > 200 µM | 5.11
4 | OCCOCCN[C@@H]1CC(=S)N2C[C@@H]3CCCN4CCC[C@@H]([C@H]34)[C@H]2C1 | 8.4% | Non-toxic | Dose-dependent effect | 57.5 µM | 4.75
5 | OCCN[C@@H]1CC(=S)N2C[C@@H]3CCCN4CCC[C@@H]([C@H]34)[C@H]2C1 | 29.3% | Non-toxic | Dose-dependent effect | 39.2 µM | 4.85
6 | OCCCN[C@@H]1CC(=S)N2C[C@@H]3CCCN4CCC[C@@H]([C@H]34)[C@H]2C1 | 22.8% | Non-toxic | Dose-dependent effect | 53.8 µM | 3.14
7 | CCN[C@@H]1CC(=S)N2C[C@@H]3CCCN4CCC[C@@H]([C@H]34)[C@H]2C1 | 41.5% | Non-toxic | Dose-dependent effect | 23.5 µM | 1.96
8 | CCCN[C@@H]1CC(=S)N2C[C@@H]3CCCN4CCC[C@@H]([C@H]34)[C@H]2C1 | 9.6% | Non-toxic | Dose-dependent effect | 93.5 µM | 3.4
9 | S=C1C[C@@H](NCC2CC2)C[C@@H]2[C@H]3CCCN4CCC[C@@H](CN12)[C@@H]34 | 16.2% | Non-toxic | Dose-dependent effect | 119 µM | 7.83
10 | O=C1C=CC[C@@H]2[C@H]3CCCN4CCC[C@@H](CN12)[C@@H]34 [SOPHOCARPINE] | – | Non-toxic | Dose-dependent effect | > 200 µM | 3.47
11 | S=C1C[C@@H](NCc2ccccc2)C[C@@H]2[C@H]3CCCN4CCC[C@@H](CN12)[C@@H]34 | 33.9% | Non-toxic | Dose-dependent effect | 62 µM | 8.39
12 | CC(C)N[C@@H]1CC(=S)N2C[C@@H]3CCCN4CCC[C@@H]([C@H]34)[C@H]2C1 | 24% | Non-toxic | Dose-dependent effect | 52.3 µM | 6.56
13 | C=CCN[C@@H]1CC(=S)N2C[C@@H]3CCCN4CCC[C@@H]([C@H]34)[C@H]2C1 | 52.5% | Non-toxic | Dose-dependent effect | 9.4 µM | 1.47
